Measured values reported in US20240000872A1, “NOVEL BACTERIOPHAGE THAT LYSES ACINETOBACTER GENUS BACTERIA HAVING RESISTANCE TO ANTIBIOTICS” (priority 2020, published 2024).

Test system: Acinetobacter baumannii strains
Assay: Antibiotic susceptibility test (CLSI disk diffusion test method, read per CLSI 2016); further: key: ‘S’ means susceptible; ‘I’ means intermediate; ‘R’ means resistant
Format: cell-based

CN(C)c1cc(NC(=O)CNC(C)(C)C)c(O)c2c1C[C@H]1C[C@H]3[C@H](N(C)C)C(O)=C(C(N)=O)C(=O)[C@@]3(O)C(O)=C1C2=O [Tigecycline, tigecycline]
S: antibiotic susceptibility class (host strain YMC14/01/C29) | antibiotic susceptibility class (host strain YMC14/01/IP122) | antibiotic susceptibility class (host strain YMC14/01/L8) | antibiotic susceptibility class (host strain YMC14/01/P31) | antibiotic susceptibility class (host strain YMC14/01/P117) | antibiotic susceptibility class (host strain YMC14/01/P728) | antibiotic susceptibility class (host strain YMC14/01/R130) | antibiotic susceptibility class (host strain YMC14/01/R160) | antibiotic susceptibility class (host strain YMC14/01/R198) | antibiotic susceptibility class (host strain YMC14/01/R257) | antibiotic susceptibility class (host strain YMC14/01/R270) | antibiotic susceptibility class (host strain YMC14/01/R324) | antibiotic susceptibility class (host strain YMC14/01/R443) | antibiotic susceptibility class (host strain YMC14/01/R451) | antibiotic susceptibility class (host strain YMC14/01/R617) | antibiotic susceptibility class (host strain YMC14/01/R671) | antibiotic susceptibility class (host strain YMC14/01/R767) | antibiotic susceptibility class (host strain YMC14/01/R904) | antibiotic susceptibility class (host strain YMC14/01/R905) | antibiotic susceptibility class (host strain YMC14/01/R921) | antibiotic susceptibility class (host strain YMC14/01/R1006) | antibiotic susceptibility class (host strain YMC14/01/R1199) | antibiotic susceptibility class (host strain YMC14/01/R1659) | antibiotic susceptibility class (host strain YMC14/01/R1722) | antibiotic susceptibility class (host strain YMC14/01/R1752) | antibiotic susceptibility class (host strain YMC14/01/R2429) | antibiotic susceptibility class (host strain YMC14/01/R2855) | antibiotic susceptibility class (host strain YMC14/01/R2945) | antibiotic susceptibility class (host strain YMC14/01/R3007) | antibiotic susceptibility class (host strain YMC14/01/R3317) | antibiotic susceptibility class (host strain YMC14/01/R3474) | antibiotic susceptibility class (host strain YMC14/01/R3574) | antibiotic susceptibility class (host strain YMC14/01/U318) | antibiotic susceptibility class (host strain YMC14/02/L18) | antibiotic susceptibility class (host strain YMC14/02/R2417) | antibiotic susceptibility class (host strain YMC14/02/R2599) | antibiotic susceptibility class (host strain YMC14/02/R2781) | antibiotic susceptibility class (host strain YMC14/02/R3106) | antibiotic susceptibility class (host strain YMC14/02/U1607) | antibiotic susceptibility class (host strain YMC14/03/L9) | antibiotic susceptibility class (host strain YMC14/03/P471) | antibiotic susceptibility class (host strain YMC14/03/R217) | antibiotic susceptibility class (host strain YMC14/03/R618) | antibiotic susceptibility class (host strain YMC14/03/R2144) | antibiotic susceptibility class (host strain YMC14/03/U4616) | antibiotic susceptibility class (host strain YMC14/04/R1078) | antibiotic susceptibility class (host strain YMC14/04/R1080) | antibiotic susceptibility S/I/R (host strain YMC14/06/R2359) | susceptibility category (S/I/R) (host strain YMC14/06/R2359) | antibiotic susceptibility S/I/R (host strain YMC14/08/T90) | susceptibility category (S/I/R) (host strain YMC14/08/T90) | antibiotic susceptibility S/I/R (host strain YMC15/02/T28) | susceptibility category (S/I/R) (host strain YMC15/02/T28) | antibiotic susceptibility S/I/R (host strain YMC15/03/R1604) | susceptibility category (S/I/R) (host strain YMC15/03/R1604) | antibiotic susceptibility S/I/R (host strain YMC16/01/P11) | susceptibility category (S/I/R) (host strain YMC16/01/P11) | antibiotic susceptibility S/I/R (host strain YMC16/01/R123) | susceptibility category (S/I/R) (host strain YMC16/01/R123) | antibiotic susceptibility S/I/R (host strain YMC16/01/R198) | susceptibility category (S/I/R) (host strain YMC16/01/R198) | antibiotic susceptibility S/I/R (host strain YMC16/01/R353) | susceptibility category (S/I/R) (host strain YMC16/01/R353) | antibiotic susceptibility S/I/R (host strain YMC16/01/R380) | susceptibility category (S/I/R) (host strain YMC16/01/R380) | antibiotic susceptibility S/I/R (host strain YMC16/01/R397) | susceptibility category (S/I/R) (host strain YMC16/01/R397) | antibiotic susceptibility S/I/R (host strain YMC16/05/R2210) | susceptibility category (S/I/R) (host strain YMC16/05/R2210) | antibiotic susceptibility S/I/R (host strain YMC16/07/R2512) | susceptibility category (S/I/R) (host strain YMC16/07/R2512) | antibiotic susceptibility S/I/R (host strain YMC16/09/R2471) | susceptibility category (S/I/R) (host strain YMC16/09/R2471) | antibiotic susceptibility S/I/R (host strain YMC16/10/R2537) | susceptibility category (S/I/R) (host strain YMC16/10/R2537) | antibiotic susceptibility S/I/R (host strain YMC16/12/B11422) | susceptibility category (S/I/R) (host strain YMC16/12/B11422) | antibiotic susceptibility S/I/R (host strain YMC16/12/B11449) | susceptibility category (S/I/R) (host strain YMC16/12/B11449) | antibiotic susceptibility S/I/R (host strain YMC16/12/B13325) | susceptibility category (S/I/R) (host strain YMC16/12/B13325) | antibiotic susceptibility S/I/R (host strain YMC16/12/P503) | susceptibility category (S/I/R) (host strain YMC16/12/P503) | antibiotic susceptibility S/I/R (host strain YMC17/01/B10087) | susceptibility category (S/I/R) (host strain YMC17/01/B10087) | antibiotic susceptibility S/I/R (host strain YMC17/01/B12075) | susceptibility category (S/I/R) (host strain YMC17/01/B12075) | antibiotic susceptibility S/I/R (host strain YMC17/01/B13454) | susceptibility category (S/I/R) (host strain YMC17/01/B13454) | antibiotic susceptibility S/I/R (host strain YMC17/01/P518) | susceptibility category (S/I/R) (host strain YMC17/01/P518) | antibiotic susceptibility S/I/R (host strain YMC17/02/B14) | susceptibility category (S/I/R) (host strain YMC17/02/B14) | antibiotic susceptibility S/I/R (host strain YMC17/02/B87) | susceptibility category (S/I/R) (host strain YMC17/02/B87) | antibiotic susceptibility S/I/R (host strain YMC17/02/B721) | susceptibility category (S/I/R) (host strain YMC17/02/B721) | antibiotic susceptibility S/I/R (host strain YMC17/02/B4039) | susceptibility category (S/I/R) (host strain YMC17/02/B4039) | antibiotic susceptibility S/I/R (host strain YMC17/02/B4520) | susceptibility category (S/I/R) (host strain YMC17/02/B4520) | antibiotic susceptibility S/I/R (host strain YMC17/02/B4864) | susceptibility category (S/I/R) (host strain YMC17/02/B4864) | antibiotic susceptibility S/I/R (host strain YMC17/02/P523) | susceptibility category (S/I/R) (host strain YMC17/02/P523) | antibiotic susceptibility S/I/R (host strain YMC17/02/R2392) | susceptibility category (S/I/R) (host strain YMC17/02/R2392) | antibiotic susceptibility S/I/R (host strain YMC17/03/B5000) | susceptibility category (S/I/R) (host strain YMC17/03/B5000) | antibiotic susceptibility S/I/R (host strain YMC17/03/R348) | susceptibility category (S/I/R) (host strain YMC17/03/R348) | antibiotic susceptibility S/I/R (host strain YMC17/03/R3279) | susceptibility category (S/I/R) (host strain YMC17/03/R3279) | antibiotic susceptibility S/I/R (host strain YMC17/03/R4607) | susceptibility category (S/I/R) (host strain YMC17/03/R4607) | antibiotic susceptibility S/I/R (host strain YMC17/04/R488) | susceptibility category (S/I/R) (host strain YMC17/04/R488)
I: antibiotic susceptibility class (host strain YMC14/01/P224) | antibiotic susceptibility class (host strain YMC14/01/R2572) | antibiotic susceptibility class (host strain YMC14/01/R3129) | antibiotic susceptibility class (host strain YMC14/02/P47) | antibiotic susceptibility class (host strain YMC14/02/R1860) | susceptibility category (S/I/R) (host strain YMC15/02/R436) | susceptibility category (S/I/R) (host strain YMC15/09/R1869) | susceptibility category (S/I/R) (host strain YMC16/03/R4461) | susceptibility category (S/I/R) (host strain YMC16/12/R4637) | susceptibility category (S/I/R) (host strain YMC17/01/R2812) | susceptibility category (S/I/R) (host strain YMC17/02/R541) | susceptibility category (S/I/R) (host strain YMC17/03/R585) | susceptibility category (S/I/R) (host strain YMC/17/05/R1095)
R: antibiotic susceptibility class (host strain YMC14/01/P727) | antibiotic susceptibility class (host strain YMC14/01/R560) | antibiotic susceptibility class (host strain YMC14/01/R732) | antibiotic susceptibility class (host strain YMC14/01/R941) | antibiotic susceptibility class (host strain YMC14/01/R958) | antibiotic susceptibility class (host strain YMC14/01/U313) | antibiotic susceptibility class (host strain YMC14/02/R2668) | antibiotic susceptibility class (host strain YMC14/02/R2758) | antibiotic susceptibility class (host strain YMC14/02/R3419) | antibiotic susceptibility class (host strain YMC14/03/R122) | antibiotic susceptibility class (host strain YMC14/03/R380) | antibiotic susceptibility S/I/R (host strain YMC14/08/R1169) | susceptibility category (S/I/R) (host strain YMC14/08/R1169) | antibiotic susceptibility S/I/R (host strain YMC16/01/R405) | susceptibility category (S/I/R) (host strain YMC16/01/R405) | antibiotic susceptibility S/I/R (host strain YMC17/01/B8053) | susceptibility category (S/I/R) (host strain YMC17/01/B8053) | antibiotic susceptibility S/I/R (host strain YMC17/02/B8414) | susceptibility category (S/I/R) (host strain YMC17/02/B8414) | antibiotic susceptibility S/I/R (host strain YMC17/03/B4730) | susceptibility category (S/I/R) (host strain YMC17/03/B4730) | antibiotic susceptibility S/I/R (host strain YMC17/03/P971) | susceptibility category (S/I/R) (host strain YMC17/03/P971) | antibiotic susceptibility S/I/R (host strain YMC17/03/R1888) | susceptibility category (S/I/R) (host strain YMC17/03/R1888) | antibiotic susceptibility S/I/R (host strain YMC17/03/R4077) | susceptibility category (S/I/R) (host strain YMC17/03/R4077) | antibiotic susceptibility S/I/R (host strain YMC17/04/R640) | susceptibility category (S/I/R) (host strain YMC17/04/R640)
